Experimental data published in publication PMC9319634, “Antibacterial Peptide NP-6 Affects Staphylococcus aureus by Multiple Modes of Action” (International Journal of Molecular Sciences, 2022).
Peptide text beside a SMILES is read from it.

Tests used:
mouse red blood cells = test: Hemolysis assay; type: cell-based; details: 512 µg/mL (1MIC); mouse red blood cells in PBS 0.01 M pH 7.4, 37 °C, 1 h; absorbance 595 nm; 1% Triton X-100 = 100%; mean ± SD, n = 3
Method: The hemolytic activity of the peptide was evaluated according to Tang et al. with minor modifications. To prepare the red blood cell solution, 1.0 mL of fresh mouse red blood cells was centrifuged for 5 min at 1000× g, and the precipitates were resuspended in 10 mL of PBS (0.01 M, pH 7.4). A total of 50 µL of serial dilutions of peptides (2048, 1024, 512, 256, 128, 64, 32, 16, 8, and 4 µg/mL) were prepared in a 96-well plate by dissolving NP-6 and Nisin A in PBS (0.01 M, pH 7.4). Then, 50 µL of freshly prepared mouse red blood cell solution was added and incubated at 37 °C for 1 h. A total of 50 µL of PBS buffer only and 50 µL of Triton X-100 1% (w/v) were mixed with 50 µL of mouse red blood cell solution as negative and positive controls, respectively. After 1 h of incubation, all the samples were centrifuged at 1000× g for 5 min. The supernatant was collected, and the absorbance was at 595 nm with a UV–vis instrument at 25 °C. The percent hemolysis was calculated as the following equation:(1) %hemolysis=absorbancesample−absorbancenegative/absorbancepositive−absorbancenegative×100
Mouse red blood cells that were suspended in PBS and 1% Triton X-100 represented zero hemolysis and 100% hemolysis, respectively.

RAW 264.7 cells = test: CCK-8 cytotoxicity assay; type: cell-based; details: CCK-8, 48 h incubation, absorbance 450 nm, mean, n = 3
Method: RAW 264.7 cells were purchased from the National Collection of Authenticated Cell Cultures (Shanghai, China). The cells were cultured in DMEM containing 10% FBS at 37 °C in a 5% CO2 incubator at constant temperature.
The Cell Counting Kit-8 (CCK-8) assay was conducted to measure the cytotoxicity of the peptides towards RAW 264.7 cells according to Deng et al.. The cells were incubated in Roswell Park Memorial Institute (RPMI)-1640 medium at 37 °C in a humidified atmosphere with 5% CO2. Then, they were added to a 96-well plate (3 × 10^3 cells/well) to adhere for 18 h. A total of 100 µL of the samples with different concentrations (256, 512, 1024, and 2048 µg/mL) diluted by H2O were added and incubated for another 48 h, after which the medium was disposed. A total of 100 µL of the CCK-8 test solution was added and incubated for 2 h at 37 °C. The absorbance values of the mixture at 450 nm were determined. The survival rate of cells was calculated according to the following formula:(2) Survival rate (%)=absorbancesample−absorbanceblank/absorbancecontrol−absorbanceblank×100

[1] = Serum stability (antimicrobial activity after incubation in fetal bovine serum, plate count); type: in vitro ADME; details: peptide 1.0 mg/mL in 50% fetal bovine serum, 37 °C, 0, 3 and 6 h; remaining antimicrobial activity by plate count (CFU); repeated three times
Method: The serum stability assay was conducted to evaluate the effect of serum on the antimicrobial activity of NP-6 using a method that was reported in a previous study. Peptide (1.0 mg/mL) was added to 50% fetal bovine serum and incubated at 37 °C for 0, 3, and 6 h, respectively. The cells that were incubated with PBS, NP-6, and serum were conducted as a blank and a control. The antimicrobial activity of NP-6 was measured using the plate count method. These assays were repeated three times independently. The inhibition rate of samples was calculated according to the following formula:(3) Inhibition rate (%)=Nblank−Nsample/Nblank×100 where Nblank is the colony forming units (CFU) of cells that were incubated with PBS and Nsample is the CFU of cells that were incubated with NP-6, NP-6+ serum, and serum, respectively. The inhibition rate of NP-6+ serum is expressed as the relative value to NP-6.

Compound: CC[C@H](C)[C@H](NC(=O)CNC(=O)[C@@H](NC(=O)[C@H](CCCCN)NC(=O)[C@@H](NC(=O)[C@H](CCCCN)NC(=O)[C@H](CCCCN)NC(=O)[C@H](CC(=O)O)NC(=O)CNC(=O)[C@H](C)N)[C@@H](C)CC)[C@@H](C)CC)C(=O)N[C@@H](CC(N)=O)C(=O)NCC(=O)N[C@@H](Cc1ccccc1)C(=O)NCC(=O)N[C@@H](CCCNC(=N)N)C(=O)N[C@H](C(=O)NCC(=O)N[C@@H](CCCNC(=N)N)C(=O)N[C@@H](CC(C)C)C(=O)O)[C@@H](C)CC [NP-6] (H-AGDKKIKIGINGFGRIGRL-OH)
- hemolysis activity (mouse red blood cells): 2.39 ± 0.13%
- survival rate of RAW264.7 cells (RAW 264.7 cells; 1 × MIC (512 µg/mL)): 72.56%
- survival rate of RAW264.7 cells (RAW 264.7 cells; 2 × MIC (1024 µg/mL)): 20.26%
- inhibition rate of NP-6 + serum samples relative to NP-6 [1]: exceeded 80%
